Source: ChEMBL document CHEMBL1201862, “PubChem BioAssay data set” (2004)
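A five-concentration, 48-hour dose response in 96-well plates underlies each endpoint, interpolated linearly between surrounding concentrations. Abbreviation: GI50, concentration required for 50% inhibition of growth.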 The source made the active and inactive calls. No stated cut-off is given here; in the data, active = GI50 up to about 1.1 µM and inactive = higher.

Legend:
Test in all cases: NCI-60 cell line screen, 48 h
A549 = system: A549
CAKI-1 = system: CAKI-1
CCRF-CEM = system: CCRF-CEM
COLO 205 = system: COLO 205
DU-145 = system: DU-145
EKVX = system: EKVX
HCT-116 = system: HCT-116
HOP-62 = system: HOP-62
OVCAR-3 = system: OVCAR-3
RXF 393 = system: RXF 393
SF-295 = system: SF-295
SF-539 = system: SF-539
SK-MEL-2 = system: SK-MEL-2
SK-OV-3 = system: SK-OV-3
SN12C = system: SN12C
SNB-75 = system: SNB-75
TK-10 = system: TK-10
U-251 = system: U-251
SK-MEL-5 = system: SK-MEL-5

Measured: GI50

O=C(C(Cl)Cl)N(O)c1ccccc1OCc1ccccc1
inactive: A549 33.8 µM | CAKI-1 85.9 µM | CCRF-CEM 1.79 µM | COLO 205 17 µM | DU-145 17 µM | EKVX 22 µM | HCT-116 63.8 µM | HOP-62 > 100 µM | OVCAR-3 27.7 µM | RXF 393 86.3 µM | SF-295 57.7 µM | SF-539 31.3 µM | SK-MEL-2 80 µM | SK-OV-3 > 100 µM | SN12C 49.2 µM | SNB-75 29.4 µM | TK-10 56 µM | U-251 38.5 µM

CSc1cc(Cl)c(C)cc1S(=O)(=O)NC(=O)NNc1ccccn1
inactive: A549 > 100 µM | CAKI-1 > 100 µM | CCRF-CEM > 100 µM | COLO 205 > 100 µM | DU-145 > 100 µM | EKVX > 100 µM | HCT-116 > 100 µM | HOP-62 > 100 µM | OVCAR-3 > 100 µM | RXF 393 > 100 µM | SF-295 > 100 µM | SF-539 > 100 µM | SK-MEL-2 > 100 µM | SK-MEL-5 > 100 µM | SK-OV-3 > 100 µM | SN12C > 100 µM | SNB-75 5.21 µM | U-251 > 100 µM

COc1cc2c(cc1OC)C1(COc3cc(O)c(O)c(O)c3C1=O)C2 (centres undefined)
inactive: A549 > 50 µM | CAKI-1 > 50 µM | CCRF-CEM > 50 µM | COLO 205 > 50 µM | DU-145 > 50 µM | HCT-116 > 50 µM | HOP-62 > 50 µM | OVCAR-3 > 50 µM | RXF 393 > 50 µM | SF-295 25.9 µM | SF-539 > 50 µM | SK-MEL-2 > 50 µM | SK-MEL-5 > 50 µM | SK-OV-3 > 50 µM | SN12C > 50 µM | SNB-75 8.65 µM | TK-10 > 50 µM | U-251 > 50 µM

C/C(=N\NC(=O)c1ccc(Cl)cc1)c1nc2cccnc2[nH]1
inactive: A549 30.2 µM | CAKI-1 28.8 µM | CCRF-CEM 10.4 µM | COLO 205 30.5 µM | DU-145 49 µM | EKVX 43 µM | HCT-116 32.6 µM | HOP-62 32.7 µM | OVCAR-3 22.9 µM | RXF 393 18.1 µM | SF-295 45.8 µM | SF-539 18.2 µM | SK-MEL-2 28.4 µM | SK-MEL-5 15.8 µM | SK-OV-3 20.4 µM | SN12C 27.6 µM | SNB-75 3.26 µM | TK-10 15.2 µM | U-251 8.93 µM

CSC1=Nc2ccccc2-c2nc(-c3ccccc3)cc(-c3ccccc3)c2C1
inactive: A549 16 µM | CAKI-1 12.4 µM | CCRF-CEM > 100 µM | COLO 205 55 µM | DU-145 60.4 µM | EKVX 23.1 µM | HCT-116 5.16 µM | HOP-62 19.8 µM | RXF 393 6.5 µM | SF-295 13.6 µM | SF-539 19.2 µM | SK-MEL-5 16.6 µM | SK-OV-3 12.2 µM | SN12C 28.2 µM | SNB-75 4.26 µM | TK-10 16.2 µM | U-251 7.03 µM

Clc1cc2nnn(C3CCCCO3)c2cc1Cl (centres undefined)
inactive: A549 80.2 µM | CAKI-1 30.4 µM | CCRF-CEM > 100 µM | COLO 205 > 100 µM | DU-145 99.1 µM | EKVX 20.7 µM | HCT-116 79.8 µM | HOP-62 > 100 µM | OVCAR-3 69.3 µM | RXF 393 > 100 µM | SF-295 > 100 µM | SF-539 > 100 µM | SK-MEL-2 > 100 µM | SK-MEL-5 38.7 µM | SK-OV-3 > 100 µM | SN12C > 100 µM | SNB-75 34.4 µM | TK-10 > 100 µM | U-251 80.7 µM
